US20210322443A1 (MAPREG, priority 2015, published 2021)

Tests used:
[1] = target: T1, human progesterone receptor(PR) (Homo sapiens, UniProt P06401); test: Progesterone receptor antagonist transactivation test (progesterone 1 nM) in transfected HEK293T cells; format: cell-based; conditions: with progesterone 1 nM, increasing amounts, FIG. 2
T1 construct: expressed in transfected cells; host or cells: HEK293T
T1 sequence (P06401 1-933): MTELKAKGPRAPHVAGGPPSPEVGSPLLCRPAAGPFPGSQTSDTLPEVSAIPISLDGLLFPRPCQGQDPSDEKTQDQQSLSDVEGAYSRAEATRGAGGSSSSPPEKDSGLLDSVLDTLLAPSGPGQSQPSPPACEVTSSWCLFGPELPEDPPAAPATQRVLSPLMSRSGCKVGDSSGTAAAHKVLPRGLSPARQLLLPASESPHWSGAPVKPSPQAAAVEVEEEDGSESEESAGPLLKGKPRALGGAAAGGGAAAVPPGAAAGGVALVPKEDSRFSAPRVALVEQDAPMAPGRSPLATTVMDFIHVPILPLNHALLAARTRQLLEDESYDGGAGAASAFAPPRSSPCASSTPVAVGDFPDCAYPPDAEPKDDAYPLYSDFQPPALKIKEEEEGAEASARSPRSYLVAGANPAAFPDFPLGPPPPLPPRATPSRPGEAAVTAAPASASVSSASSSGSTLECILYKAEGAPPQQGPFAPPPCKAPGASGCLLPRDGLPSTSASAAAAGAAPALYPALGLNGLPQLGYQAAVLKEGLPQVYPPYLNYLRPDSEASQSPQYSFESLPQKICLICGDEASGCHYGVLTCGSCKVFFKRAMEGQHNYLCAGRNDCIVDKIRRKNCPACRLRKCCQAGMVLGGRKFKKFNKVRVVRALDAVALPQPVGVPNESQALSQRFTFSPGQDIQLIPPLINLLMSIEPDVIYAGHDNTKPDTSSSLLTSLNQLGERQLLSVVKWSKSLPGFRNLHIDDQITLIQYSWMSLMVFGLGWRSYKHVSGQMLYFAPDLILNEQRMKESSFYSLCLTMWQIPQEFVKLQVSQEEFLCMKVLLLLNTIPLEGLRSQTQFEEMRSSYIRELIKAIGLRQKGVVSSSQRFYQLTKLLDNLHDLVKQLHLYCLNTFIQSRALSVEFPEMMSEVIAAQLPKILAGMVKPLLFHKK
Method: The main experimental setting used is the following: HEK293T cells were transiently transfected, using calcium phosphate precipitation technology, with expression vectors pSG5hPR (which permits expression of human progesterone receptor(PR)), pFC31-luc (contains the luciferase gene under the control of the MMTV promoter, which is in turn activated by binding of a progestin to progesterone receptor) and pcbetagal (which permits expression of betagalactosidase), and cultured during 24 hours with increasing amounts of various compositions: • 1. […] Test of progesterone receptor […] activity: transfected cells were cultured with progesterone (1 nM) and increasing amounts of RU486 (a well-known progesterone receptor antagonist) or 3-methoxy-pregnenolone. • With this setting, a compound with progesterone receptor antagonist activity competes with progesterone for the occupation of progesterone receptor and results in a progressive loss of transactivation activity when the amount of this compound is increased compared to progesterone.

Androgen Receptor (AR) = Androgen Receptor (AR) (Rattus norvegicus, UniProt P15207); test: Radioligand binding assay, steroid hormone receptors; conditions: 1.5 nM [3H] Mibolerone, Rat recombinant E. coli, read-out: % inhibition of specific binding
Chain of Androgen Receptor (AR) (P15207 whole entry S389L): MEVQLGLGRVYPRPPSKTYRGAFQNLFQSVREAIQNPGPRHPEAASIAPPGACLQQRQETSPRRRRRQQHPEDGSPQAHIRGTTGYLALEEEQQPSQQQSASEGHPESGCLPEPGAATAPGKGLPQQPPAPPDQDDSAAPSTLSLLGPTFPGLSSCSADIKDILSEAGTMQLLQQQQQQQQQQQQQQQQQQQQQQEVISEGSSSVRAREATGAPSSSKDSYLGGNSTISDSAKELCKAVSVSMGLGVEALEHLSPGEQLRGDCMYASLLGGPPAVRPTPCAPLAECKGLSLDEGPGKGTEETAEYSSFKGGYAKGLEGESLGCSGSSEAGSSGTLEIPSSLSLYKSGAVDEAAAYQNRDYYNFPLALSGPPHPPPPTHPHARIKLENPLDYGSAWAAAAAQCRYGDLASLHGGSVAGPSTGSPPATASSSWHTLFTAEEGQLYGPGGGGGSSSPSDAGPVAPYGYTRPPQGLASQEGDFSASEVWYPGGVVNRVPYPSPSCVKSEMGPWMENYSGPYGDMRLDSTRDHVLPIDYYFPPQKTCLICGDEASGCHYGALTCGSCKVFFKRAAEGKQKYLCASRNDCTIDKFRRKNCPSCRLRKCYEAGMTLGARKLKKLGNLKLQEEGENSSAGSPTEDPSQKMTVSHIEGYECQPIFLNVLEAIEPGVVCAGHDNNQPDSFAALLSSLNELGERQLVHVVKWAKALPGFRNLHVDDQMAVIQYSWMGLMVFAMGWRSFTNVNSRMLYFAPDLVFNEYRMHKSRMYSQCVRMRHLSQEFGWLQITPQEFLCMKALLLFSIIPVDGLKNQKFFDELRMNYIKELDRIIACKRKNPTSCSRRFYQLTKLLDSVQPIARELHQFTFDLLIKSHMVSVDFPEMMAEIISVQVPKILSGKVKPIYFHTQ
Method: Binding affinity of 3β-methoxy-PREG (MAP4343) for receptors of steroid hormones was evaluated using radioligand binding assays.

[2] = target: Muscarinic (Cholinergic) M4 (Homo sapiens, UniProt P08173); test: CNS receptor binding assay; conditions: [3H] 4-DAMP, Human recombinant (CHO cells), read-out: % Inhibition of control specific binding
Chain of Muscarinic (Cholinergic) M4 (P08173 whole entry): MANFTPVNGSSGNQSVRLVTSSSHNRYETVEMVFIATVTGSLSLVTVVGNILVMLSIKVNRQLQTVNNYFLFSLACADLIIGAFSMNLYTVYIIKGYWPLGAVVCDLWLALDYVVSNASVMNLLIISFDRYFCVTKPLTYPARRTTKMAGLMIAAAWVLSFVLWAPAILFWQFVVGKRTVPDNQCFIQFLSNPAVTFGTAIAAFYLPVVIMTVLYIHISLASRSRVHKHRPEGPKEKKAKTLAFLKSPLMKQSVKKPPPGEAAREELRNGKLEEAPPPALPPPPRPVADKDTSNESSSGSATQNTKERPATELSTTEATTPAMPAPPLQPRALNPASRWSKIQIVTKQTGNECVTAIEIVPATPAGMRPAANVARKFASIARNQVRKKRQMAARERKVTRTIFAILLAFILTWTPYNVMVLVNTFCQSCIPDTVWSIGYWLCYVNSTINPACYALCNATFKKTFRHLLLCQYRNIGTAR

Serotoninergic 5-HT2A = Serotoninergic 5-HT2A (Homo sapiens, UniProt P28223); test: CNS receptor binding assay; conditions: [3H] ketanserin, Human recombinant (HEK-293 cells), read-out: % Inhibition of control specific binding
Chain of Serotoninergic 5-HT2A (P28223 whole entry): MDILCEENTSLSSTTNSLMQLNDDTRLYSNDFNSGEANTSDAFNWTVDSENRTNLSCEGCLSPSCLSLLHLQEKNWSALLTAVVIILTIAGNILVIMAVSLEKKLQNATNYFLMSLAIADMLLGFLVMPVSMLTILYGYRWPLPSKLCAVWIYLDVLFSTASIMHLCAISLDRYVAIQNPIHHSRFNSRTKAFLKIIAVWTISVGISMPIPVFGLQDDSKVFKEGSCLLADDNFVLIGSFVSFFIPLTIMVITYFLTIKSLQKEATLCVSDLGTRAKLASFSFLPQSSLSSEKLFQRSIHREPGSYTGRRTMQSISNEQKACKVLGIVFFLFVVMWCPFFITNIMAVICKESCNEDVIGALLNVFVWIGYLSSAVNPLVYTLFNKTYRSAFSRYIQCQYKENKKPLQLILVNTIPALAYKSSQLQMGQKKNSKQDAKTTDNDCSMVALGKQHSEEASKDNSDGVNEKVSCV

[3] = target: Serotoninergic Transporter (Homo sapiens, UniProt P31645); test: CNS receptor binding assay; conditions: [3H] imipramine, Human recombinant (CHO cells), read-out: % Inhibition of control specific binding
Chain of Serotoninergic Transporter (P31645 whole entry): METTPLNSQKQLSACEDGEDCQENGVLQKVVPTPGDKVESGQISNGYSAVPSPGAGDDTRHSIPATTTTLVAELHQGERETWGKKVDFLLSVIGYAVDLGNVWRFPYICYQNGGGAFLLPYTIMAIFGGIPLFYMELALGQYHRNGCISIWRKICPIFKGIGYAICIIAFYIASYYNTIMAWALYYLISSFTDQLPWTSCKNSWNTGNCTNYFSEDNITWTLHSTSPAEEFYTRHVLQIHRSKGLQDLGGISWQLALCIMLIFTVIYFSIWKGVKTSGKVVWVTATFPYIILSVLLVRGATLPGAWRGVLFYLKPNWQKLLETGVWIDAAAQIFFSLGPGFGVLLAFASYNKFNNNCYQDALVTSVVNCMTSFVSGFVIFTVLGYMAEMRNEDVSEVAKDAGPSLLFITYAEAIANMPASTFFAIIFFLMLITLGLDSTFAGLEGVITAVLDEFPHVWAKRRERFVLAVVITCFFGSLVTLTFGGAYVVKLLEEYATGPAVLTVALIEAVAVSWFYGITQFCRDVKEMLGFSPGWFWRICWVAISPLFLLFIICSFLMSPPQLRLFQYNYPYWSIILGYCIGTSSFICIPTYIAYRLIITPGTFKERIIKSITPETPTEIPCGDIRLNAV

Cannabinoid CB1 = Cannabinoid CB1 (Homo sapiens, UniProt P21554); test: CNS receptor binding assay; conditions: [3H] CP55940, Human recombinant (CHO cells), read-out: % Inhibition of control specific binding
Chain of Cannabinoid CB1 (P21554 whole entry): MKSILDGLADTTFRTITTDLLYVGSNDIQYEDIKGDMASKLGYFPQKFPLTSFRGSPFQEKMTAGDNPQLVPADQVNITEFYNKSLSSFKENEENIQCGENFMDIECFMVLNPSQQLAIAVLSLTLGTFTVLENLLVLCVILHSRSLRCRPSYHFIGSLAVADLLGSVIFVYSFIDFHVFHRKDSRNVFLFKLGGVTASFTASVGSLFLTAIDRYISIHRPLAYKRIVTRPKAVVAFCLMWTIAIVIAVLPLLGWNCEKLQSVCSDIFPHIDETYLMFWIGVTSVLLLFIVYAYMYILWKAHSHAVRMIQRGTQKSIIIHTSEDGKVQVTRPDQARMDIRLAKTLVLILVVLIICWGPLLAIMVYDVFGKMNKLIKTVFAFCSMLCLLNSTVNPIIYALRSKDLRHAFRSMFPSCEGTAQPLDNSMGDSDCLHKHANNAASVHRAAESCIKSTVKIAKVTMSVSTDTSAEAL

[4] = target: purified tubulin and MAP2 (Homo sapiens, UniProt P11137); test: Increase in optical density at 345 nm of purified tubulin and MAP2 (microtubule polymerization); format: biochemical; conditions: 37° C., GTP
Chain of purified tubulin and MAP2 (P11137 whole entry): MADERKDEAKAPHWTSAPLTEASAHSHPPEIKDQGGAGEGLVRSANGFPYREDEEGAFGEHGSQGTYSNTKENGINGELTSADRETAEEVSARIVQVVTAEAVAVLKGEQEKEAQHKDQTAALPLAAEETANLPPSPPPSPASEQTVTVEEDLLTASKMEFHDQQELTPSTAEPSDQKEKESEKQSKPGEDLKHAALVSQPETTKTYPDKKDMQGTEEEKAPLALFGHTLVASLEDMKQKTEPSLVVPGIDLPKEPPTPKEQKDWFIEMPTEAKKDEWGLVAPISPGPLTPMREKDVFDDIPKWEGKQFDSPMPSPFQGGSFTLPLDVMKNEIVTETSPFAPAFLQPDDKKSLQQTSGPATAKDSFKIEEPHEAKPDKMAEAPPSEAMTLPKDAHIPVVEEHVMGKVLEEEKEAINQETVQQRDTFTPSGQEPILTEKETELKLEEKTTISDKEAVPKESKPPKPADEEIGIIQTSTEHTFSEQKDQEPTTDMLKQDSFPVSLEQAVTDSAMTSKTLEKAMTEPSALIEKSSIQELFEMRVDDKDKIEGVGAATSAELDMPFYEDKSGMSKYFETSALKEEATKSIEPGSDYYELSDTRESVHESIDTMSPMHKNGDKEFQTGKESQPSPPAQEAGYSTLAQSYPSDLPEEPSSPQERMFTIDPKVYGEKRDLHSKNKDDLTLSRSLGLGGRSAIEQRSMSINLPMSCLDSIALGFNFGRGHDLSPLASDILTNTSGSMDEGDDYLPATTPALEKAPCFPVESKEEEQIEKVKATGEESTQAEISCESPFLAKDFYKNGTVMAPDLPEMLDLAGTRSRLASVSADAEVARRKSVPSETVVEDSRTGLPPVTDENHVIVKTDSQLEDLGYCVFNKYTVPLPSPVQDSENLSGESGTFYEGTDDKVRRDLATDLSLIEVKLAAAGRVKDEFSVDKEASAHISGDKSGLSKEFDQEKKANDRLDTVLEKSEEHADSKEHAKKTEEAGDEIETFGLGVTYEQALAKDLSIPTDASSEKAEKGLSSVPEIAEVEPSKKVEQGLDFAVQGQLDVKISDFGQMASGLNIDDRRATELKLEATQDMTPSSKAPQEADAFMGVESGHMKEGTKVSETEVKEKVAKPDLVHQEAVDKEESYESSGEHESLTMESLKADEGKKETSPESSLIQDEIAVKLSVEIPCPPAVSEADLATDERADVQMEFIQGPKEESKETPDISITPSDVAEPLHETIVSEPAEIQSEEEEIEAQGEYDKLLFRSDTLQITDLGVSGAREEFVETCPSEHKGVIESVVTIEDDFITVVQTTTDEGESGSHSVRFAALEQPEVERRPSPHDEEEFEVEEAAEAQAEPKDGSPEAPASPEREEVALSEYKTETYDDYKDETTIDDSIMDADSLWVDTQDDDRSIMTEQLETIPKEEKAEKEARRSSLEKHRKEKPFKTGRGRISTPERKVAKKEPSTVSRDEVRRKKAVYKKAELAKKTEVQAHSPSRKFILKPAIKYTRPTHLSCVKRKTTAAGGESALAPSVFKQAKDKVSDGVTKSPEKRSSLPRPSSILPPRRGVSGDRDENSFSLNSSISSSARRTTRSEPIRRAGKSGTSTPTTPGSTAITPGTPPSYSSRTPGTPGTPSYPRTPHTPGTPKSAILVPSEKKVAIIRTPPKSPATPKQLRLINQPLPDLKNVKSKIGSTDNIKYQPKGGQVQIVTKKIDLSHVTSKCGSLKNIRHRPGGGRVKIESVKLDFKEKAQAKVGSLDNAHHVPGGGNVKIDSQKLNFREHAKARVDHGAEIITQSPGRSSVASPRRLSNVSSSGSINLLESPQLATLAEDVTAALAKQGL
Method: Activity is measured by the increase in optical density at 345 nm of a mixture of purified tubulin and MAP2, incubated at 37° C. in the presence of GTP.

Noradrenergic α2 = test: CNS receptor binding assay; conditions: 10 μM; [3H] RX 821002; rat cerebral cortex
Serotoninergic 5-HT3 = Serotoninergic 5-HT3 (Homo sapiens, UniProt P46098); test: CNS receptor binding assay; conditions: read-out: % Inhibition of control specific binding

Which results are given for `CO[C@H]1CC[C@@]2(C)C(=CC[C@H]3[C@@H]4CC[C@H](C(C)=O)[C@@]4(C)CC[C@@H]32)C1` [MAP4343, 3β-methoxy-pregna-5-ene-20-one]?
progesterone receptor antagonist activity [1]: weak progesterone receptor antagonist; inhibition at 10 µM (Androgen Receptor (AR)): < 25%; inhibition at 10 µM [2]: 20%; inhibition at 10 µM (Serotoninergic 5-HT2A): 1%; inhibition at 10 µM [3]: 3%; inhibition at 10 µM (Cannabinoid CB1): 12%; Activity (percent of PREG) [4]: 100% of PREG; % Inhibition of control specific binding (Noradrenergic α2): 7%; inhibition at 10 µM (Serotoninergic 5-HT3): 10%
